# Patent US20230404995A1, “COMPOSITIONS AND METHODS FOR TREATING PULMONARY FIBROSIS” (priority 2020, published 2023)
# Key:
# WI-38 lung fibroblasts [1] = assay: TGF-β induced collagen production in WI-38 lung fibroblasts (immunofluorescent imaging); format: cell-based; settings: serum starved WI-38, TGF-β 5 ng/ml, 48 hours, quinacrine 2.5 μM; FIG. 2D
# Protocol: It is well established that during fibrotic diseases, fibroblasts and epithelial cells are transformed in myofibroblasts (mesenchymal cells), which secrete excess amount of extracellular matrix (ECM), one of the major components being interstitial collagen at the site of tissue injury. Serum starved WI-38 lung fibroblasts were activated with TGF-β (5 ng/ml; 48 hours), and QA's efficacy's in inhibiting collagen production due to transition of fibroblasts in collagen-secreting fibroblasts was tested.
# [2] = test system: primary human bronchial epithelial (HBE) cells; assay: Cell viability of HBE cells (Cell Titer Blue cell viability kit); format: cell-based; settings: QA 0.039-10 μM, 24 hours, FIG. 3
# Protocol: A cell viability study was carried out on HBE cells using Cell Titer Blue cell viability kit. Briefly, cells were treated with varying concentrations of QA (0.039-10 μM), for 24 hours, and media was used as a control. Fluorescence readings were taken at 540/590 nm using a Spark 10M Plate Reader (Tecan, Switzerland).
# HBE cells = assay: TGF-β induced epithelial-mesenchymal transition (EMT) in HBE cells, cell imaging; format: cell-based, human; settings: TGF-β 10 ng/mL, QA 0.5, 1, 2.5 and 5 μM tested, 24 and 48 hours, FIG. 4
# Protocol: For TGF-β induced epithelial mesenchymal transition (EMT) images, HBE cells (50,000 cells/well) were seeded in a 6-well culture plate. Next day, all treatments (except the medium control) were starved with replacement of growth factor-absent media. After 24 hours incubation, the QA treatments were administered: 0.5, 1, 2.5, and 5 μM. Each treatment also included 10 ng/mL of TGF-β. The remaining 2 wells were treated with regular media and TGF-β as the negative control and positive control, respectively. Individual images of the cells were taken with an EVOS-FL Cell imaging fluorescence microscope (Thermo Fisher Scientific, Waltham, MA, USA) after 24 and 48 hours.
# EMT is presented by morphological changes following TGF-beta treatment, and subsequent reversal with QA treatment.
# WI-38 lung fibroblasts [3] = assay: Growth factor induced hyper-proliferation of WI-38 lung fibroblasts
# [4] = test system: A549 alveolar epithelial cells; assay: TGF-β induced epithelial-mesenchymal transition (EMT) in A549 cells: morphology and E-cadherin expression
smiles,measurement,setting,value
"CCN(CC)CCCC(C)Nc1c2ccc(Cl)cc2nc2ccc(OC)cc12 (stereo not shown) [QA, quinacrine]",collagen expression,WI-38 lung fibroblasts [1],significantly reduced
same,cell viability,[2],> 85%
same,lowest concentrations that effectively inhibited TGF-beta induced EMT (morphological changes),HBE cells,0.5-1 μM
same,FGF induced hyper-proliferation,"WI-38 lung fibroblasts [3]; WI-38, FGF 10 ng/ml, 72 hours, FIG. 2C",dose-dependent reduction
same,PDGF-BB induced hyper-proliferation,"WI-38 lung fibroblasts [3]; WI-38, PDGF-BB 10 ng/ml, 72 hours, FIG. 2B",dose-dependent reduction
same,fibroblast proliferation in the presence of TGF-β,"WI-38 lung fibroblasts [3]; WI-38, TGF-β 10 ng/ml, 48 hours, FIG. 2A",dose-dependent reduction
same,viability (cytotoxicity of the QA doses used),"WI-38 lung fibroblasts [3]; WI-38 lung fibroblasts, all doses of QA used in the proliferation study",> 90%
same,"E-cadherin expression, western blot (compared to β-actin)","[4]; A549 cells co-incubated with QA 2.5 μM and TGF-β 5 ng/ml, TGF-β alone gave 40% reduction, FIGS. 1C-D",completely restored
same,"E-cadherin expression, immunofluorescence","[4]; A549 cells, TGF-β 5 ng/ml, 48 h, simultaneous QA 2.5 μM, FIG. 1B",restored
same,"cell morphology, protection against TGF-β induced EMT","[4]; serum starved A549 cells, TGF-β 5 ng/ml with simultaneous QA 2.5 μM, FIG. 1A",reversing fibroblastic morphology induced by TGF-β treatment
